Test results published in patent US10702603B2 (priority 2012, dated 2020).
Several values for one entry are separate records, joined by “and”; a condition that tells them apart may be missing. Identical values can stand only once. Like-named read-outs stand apart in the source and are kept apart here.

Tests used:
[1] = cited from earlier work
[2] = tested on: Xenotropic Murine Leukemia Virus (XMuLV); type: cell-based
XMuLV = assay: Viral inactivation study with TRITON X-100 using 3 different antibodies
Method: Viral inactivation studies were performed with TRITON X-100® at 1-2× CMC (0.02% w/w) at ambient temperature using 3 different antibodies. TRITON X-100® is a mixture with a range of molecular lengths, so the CMC has a range between 0.01-0.02% w/w at 25° C. in water.

Molecule | CMC ([1]; […]) | Log Reduction Factor (120 min) [2] | further results
C[C@H](CCC(=O)NCCC[N+](C)(C)CCCS(=O)(=O)[O-])[C@H]1CC[C@H]2[C@@H]3[C@H](O)C[C@@H]4C[C@H](O)CC[C@]4(C)[C@H]3C[C@H](O)[C@]12C [CHAPS, 3-[(3-cholamidopropyl)dimethylammonio]-1-propanesulfonate] | 6 to 10 mM |  | 
C[C@H](CCC(=O)NCCC[N+](C)(C)CC(O)CS(=O)(=O)[O-])[C@H]1CC[C@H]2[C@@H]3[C@H](O)C[C@@H]4C[C@H](O)CC[C@]4(C)[C@H]3C[C@H](O)[C@]12C (stereo partly shown) [CHAPSO, 3-([3-Cholamidopropyl]dimethylammonio)-2-hydroxy-1-propanesulfonate] | 8 mM |  | 
CCCCCCCCCCCC[N+](C)(C)CCCCCCCCCCC(=O)[O-] [DDMAU, N-Dodecyl-N,N-(dimethylammonio)undecanoate] | 0.13 mM |  | 
CCCCCCCCCCCC[N+](C)(C)CC(=O)[O-] [EMPIGEN BB, N,N-Dimethyl-N-dodecylglycine betaine] | 1.6 to 2.1 mM |  | 
CCCCCCCCCCCC[N+](C)(C)[O-] [LDAO, N,N-dimethyldodecylamine N-oxide] | 1 to 2 mM | 4 | Log Reduction Factor (LRF) [2]: 3.14 and 3.07 and 3.08
CCCCCCCCCCCC[N+](C)(C)CCCS(=O)(=O)[O-] [Sulfobetaine-12, N-dodecyl-N,N-dimethyl-3-ammonio-1-propanesulfonate] |  | 4.2 | 
CCCCCCCCCCCCCC[N+](C)(C)CCCS(=O)(=O)[O-] [Sulfobetaine-14, N-tetradecyl-N,N-dimethyl-3-ammonio-1-propanesulfonate] |  | 4.7 | 
CCCCCCCCCCCCCCCC[N+](C)(C)CCCS(=O)(=O)[O-] [Sulfobetaine-16, N-hexadecyl-N,N-dimethyl-3-ammonio-1-propanesulfonate] |  | 4.2 | Log Reduction Factor (LRF) [2]: 3.16 and 3.15 and 3.14
CCCCCCCC[N+](C)(C)CCCS(=O)(=O)[O-] [ZWITTERGENT 3-08, n-Octyl-N,N-dimethyl-3-ammonio-1-propanesulfonate] | 330 mM |  | 
CCCCCCCCCC[N+](C)(C)CCCS(=O)(=O)[O-] [ZWITTERGENT 3-10, n-Decyl-N,N-dimethyl-3-ammonio-1-propanesulfonate] | 25 to 40 mM |  | 
TRITON X-100 |  |  | viral inactivation (XMuLV; 0.25-0.5× CMC (0.006% w/w), below the CMC): No viral inactivation; XMuLV inactivation (XMuLV; 1-2× CMC (0.02% w/w), ambient temperature, within 45 min): > 4 log; CMC ([1]; at 25° C. in water): 0.01-0.02 % w/w
